Results published in US20250188044A1 (HARBIN MEDISAN PHARMACEUTICAL CO., LTD., priority 2021, published 2025).
pEC50: −log10 of the molar value. Read-outs that look alike come from different tables or passages of the source.

Legend:
PPARδ = target: T1, PPARδ (Homo sapiens, UniProt Q03181); assay: Gal4-PPARδ(LBD) reporter gene agonistic activity assay in Cos-7 cells; format: cell-based; conditions: for agonistic activity for PPARδ (EC50 level, in words): Cos-7 reporter assay
T1 construct: expressed in transfected cells; host or cells: Cos-7
T1 sequence (Q03181 139-441 limits assumed): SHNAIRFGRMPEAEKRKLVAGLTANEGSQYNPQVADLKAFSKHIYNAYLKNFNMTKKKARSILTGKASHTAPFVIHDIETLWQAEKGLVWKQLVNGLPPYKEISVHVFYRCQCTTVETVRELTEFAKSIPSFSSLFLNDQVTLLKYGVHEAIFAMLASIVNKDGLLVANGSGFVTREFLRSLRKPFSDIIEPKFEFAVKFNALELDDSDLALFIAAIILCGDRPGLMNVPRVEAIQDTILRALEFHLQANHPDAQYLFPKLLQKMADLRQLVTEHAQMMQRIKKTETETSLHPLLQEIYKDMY
Method: (§1) Cos-7 cells (African green monkey kidney fibroblasts, commonly used tool cells) were cultured in a 10 cm cell culture dish in a DMEM complete medium containing 10% fetal bovine serum. When the cells grew to a density of about 70%, the medium was replaced with a fresh medium for later transfection. […] The plasmid working solution was then added to the cell culture dish for cell transfection. […] Test compounds were prepared into appropriate test concentrations with a complete medium and then added to the 96-well plate. […] 10 μL of lysate was pipetted into a white opaque 384-well plate, and then 10 μL of reporter gene assay buffer (purchased from Shanghai Beyotime Biological Tech. Co., Ltd.) was added. The bioluminescence was detected by using a multimode microplate reader, and the corresponding half maximal effective concentration (EC50) value was calculated according to the detection value.

PPARγ = target: T2, PPARγ (Homo sapiens, UniProt P37231); assay: Gal4-PPARγ(LBD) reporter gene agonistic activity assay in Cos-7 cells; format: cell-based
T2 construct: hPPARγ (281aa-554aa); expressed in transfected cells; host or cells: Cos-7
T2 sequence (P37231 232-505 limits assumed): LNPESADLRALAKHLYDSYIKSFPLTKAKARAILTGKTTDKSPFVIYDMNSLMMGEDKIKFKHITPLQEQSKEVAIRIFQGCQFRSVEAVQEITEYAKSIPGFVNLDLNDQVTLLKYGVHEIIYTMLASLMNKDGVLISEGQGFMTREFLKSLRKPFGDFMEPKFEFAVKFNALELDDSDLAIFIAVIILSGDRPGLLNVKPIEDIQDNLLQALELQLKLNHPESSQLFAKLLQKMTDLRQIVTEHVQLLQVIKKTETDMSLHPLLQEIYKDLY
Method: as §1

[1] = Metabolic stability in human liver microsomes; format: in vitro ADME; conditions: for half-life: human liver microsomes 0.75 mg/mL, NADPH, 0-60 min
Method: A 500 μM solution of the compound in acetonitrile was prepared and diluted to obtain a 1.5 μM drug working solution with a 0.1 M potassium phosphate solution. The drug working solution was co-incubated with a human liver microsome working solution at a final concentration of 0.75 mg/mL and an NADPH solution (final concentration: 550 μM), and the incubation was terminated by adding an acetonitrile solution at 0 min, 15 min, 30 min, 45 min, and 60 min. The residual amount of the compound that remained in the system at each time point was detected by using LC/MS. The absolute value k of the slope was determined by plotting the natural logarithm of the percentage of the residual amount of the compound with the time, and the calculation was performed according to the formula: T1/2 (half-life)=ln2/k=0.693/k.

PPARα = target: T3, PPARα (Homo sapiens, UniProt Q07869); assay: Gal4-PPARα(LBD) reporter gene agonistic activity assay in Cos-7 cells; format: cell-based; conditions: for pEC50: Cos-7 cells, Gal4-PPARα(LBD) reporter, 16 h, 100% = GW7647 10 nM; for agonistic activity for PPARα (EC50 level, in words): Cos-7 reporter assay
T3 construct: hPPARα (279aa-580aa); expressed in transfected cells; host or cells: Cos-7
T3 sequence (Q07869 167-468 limits assumed): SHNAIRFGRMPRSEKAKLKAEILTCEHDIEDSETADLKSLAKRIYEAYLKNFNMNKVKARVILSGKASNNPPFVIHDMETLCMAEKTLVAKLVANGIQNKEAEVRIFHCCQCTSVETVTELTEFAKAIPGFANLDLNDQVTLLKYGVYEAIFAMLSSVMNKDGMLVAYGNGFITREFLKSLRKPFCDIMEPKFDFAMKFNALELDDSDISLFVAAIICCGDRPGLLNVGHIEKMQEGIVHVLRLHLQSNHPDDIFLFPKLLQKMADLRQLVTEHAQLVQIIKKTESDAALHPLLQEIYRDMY
Method: as §1

[2] = Cos-7 cells, Gal4-PPARγ(LBD) reporter, 16 h, 100% = Rosiglitazone 1 μM
[3] = Cos-7 cells, Gal4-PPARδ(LBD) reporter, 16 h, 100% = GW501516 10 nM

Row | SMILES | pEC50 (PPARδ) | agonistic activity for PPARδ (EC50 level, in words) (PPARδ) | pEC50 (PPARγ; [2]) | metabolic stability in human liver microsomes (in words) [1] | half-life [1] [h] | pEC50 (PPARα) | pEC50 (PPARδ; [3]) | agonistic activity for PPARα (EC50 level, in words) (PPARα) | pEC50 (PPARγ)
1 | Cc1cc(Cn2ncn(-c3ccc(Br)cc3)c2=O)cc(C)c1OC(C)(C)C(=O)O [Compound 55, 2-(4-((4-(4-Bromophenyl)-5-oxo-4,5-dihydro-1H-1,2,4-triazol-1-yl)methyl)-2,6-dimethylphenoxy)-2-methylpropionic acid] | 7.66 | at nanomolar levels | 5.75 | very good metabolic stability in human liver microsomes | > 2 | – | – | – | –
2 | Cc1cc(SCn2ncn(-c3ccc(C(F)(F)F)cc3)c2=O)ccc1OCC(=O)O [Compound 16, 2-(2-Methyl-4-(((5-oxo-4-(4-(trifluoromethyl)phenyl)-4,5-dihydro-1H-1,2,4-triazol-1-yl)methyl)thio)phenoxy)acetic acid] | – | – | – | very good metabolic stability in human liver microsomes | > 2 | – | – | – | –
3 | Cc1cc(Cn2ncn(-c3ccc(OC(F)(F)F)cc3)c2=O)ccc1OC(C)(C)C(=O)O [Compound 79, 2-Methyl-2-(2-methyl-4-((5-oxo-4-(4-(trifluoromethoxy)phenyl)-4,5-dihydro-1H-1,2,4-triazol-1-yl)methyl)phenoxy)propionic acid] | – | – | 5.72 | – | – | 6.47 | 6.21 | – | –
4 | CC(C)(Oc1ccc(Cn2ncn(-c3ccc(OC(F)(F)F)cc3)c2=O)cc1Cl)C(=O)O [Compound 105] | – | – | 5.31 | – | – | 6.76 | 6.49 | – | –
5 | CCc1cc(Cn2ncn(-c3ccc(OC(F)(F)F)cc3)c2=O)cc(CC)c1OC(C)(C)C(=O)O [Compound 189, 2-(2,6-Diethyl-4-((5-oxo-4-(4-(trifluoromethoxy)phenyl)-4,5-dihydro-1H-1,2,4-triazol-1-yl)methyl)phenoxy)-2-methylpropionic acid] | – | at nanomolar levels | – | – | – | 7.23 | 7.38 | at nanomolar levels | 5.66
6 | CC(C)(Oc1ccc(Cn2ncn(-c3ccc(C(F)(F)F)cc3)c2=O)cc1Cl)C(=O)O [Compound 125, 2-(2-Chloro-4-((5-oxo-4-(4-(trifluoromethyl)phenyl)-4,5-dihydro-1H-1,2,4-triazol-1-yl)methyl)phenoxy)-2-methylpropionic acid] | – | – | 5.56 | – | – | 6.79 | 6.64 | – | –
7 | Cc1cc(Cn2ncn(-c3ccc(C(F)(F)F)cc3)c2=O)cc(C(F)(F)F)c1OC(C)(C)C(=O)O [Compound 165, 2-Methyl-2-(2-methyl-4-((5-oxo-4-(4-(trifluoromethyl)phenyl)-4,5-dihydro-1H-1,2,4-triazol-1-yl)methyl)-6-(trifluoromethyl)phenoxy)propionic acid] | 9.00 | at nanomolar levels | 6.09 | very good metabolic stability in human liver microsomes | > 2 | – | – | – | –
8 | COc1ccc(-n2cnn(Cc3cc(C)c(OC(C)(C)C(=O)O)c(C)c3)c2=O)cc1 [Compound 107, 2-(4-((4-(4-Methoxyphenyl)-5-oxo-4,5-dihydro-1H-1,2,4-triazol-1-yl)methyl)-2,6-dimethylphenoxy)-2-methylpropionic acid] | – | – | 5.69 | – | – | 6.84 | 6.56 | – | –
9 | Cc1cc(Cn2ncn(-c3ccc(Cl)cc3)c2=O)cc(C)c1OC(C)(C)C(=O)O [Compound 67, 2-(4-((4-(4-Chlorophenyl)-5-oxo-4,5-dihydro-1H-1,2,4-triazol-1-yl)methyl)-2,6-dimethylphenoxy)-2-methylpropionic acid] | – | – | 5.74 | – | – | 6.78 | 7.33 | – | –
10 | Cc1ccc(-n2cnn(Cc3cc(C)c(OC(C)(C)C(=O)O)c(C)c3)c2=O)cc1 [Compound 65, 2-(2,6-Dimethyl-4-((5-oxo-4-(p-tolyl)-4,5-dihydro-1H-1,2,4-triazol-1-yl)methyl)phenoxy)-2-methylpropionic acid] | – | – | 6.02 | – | – | 6.74 | 6.61 | – | –
11 | Cc1cc(Cn2ncn(-c3ccc(C(F)(F)F)cc3)c2=O)cc(Cl)c1OC(C)(C)C(=O)O [Compound 143, 2-(2-Chloro-6-methyl-4-((5-oxo-4-(4-(trifluoromethyl)phenyl)-4,5-dihydro-1H-1,2,4-triazol-1-yl)methyl)phenoxy)-2-methylpropionic acid] | 7.82 | at nanomolar levels | 5.75 | very good metabolic stability in human liver microsomes | > 2 | 8.05 | – | at nanomolar levels | –
12 | Cc1cc(Cn2ncn(-c3ccc(C(C)C)cc3)c2=O)cc(C)c1OC(C)(C)C(=O)O [Compound 115, 2-(4-((4-(4-Isopropylphenyl)-5-oxo-4,5-dihydro-1H-1,2,4-triazol-1-yl)methyl)-2,6-dimethylphenoxy)-2-methylpropionic acid] | – | – | 5.75 | – | – | 8.10 | – | – | –
13 | CCc1ccc(-n2cnn(Cc3cc(C)c(OC(C)(C)C(=O)O)c(C)c3)c2=O)cc1 [Compound 131, 2-(4-((4-(4-Ethylphenyl)-5-oxo-4,5-dihydro-1H-1,2,4-triazol-1-yl)methyl)-2,6-dimethylphenoxy)-2-methylpropionic acid] | – | at nanomolar levels | 5.93 | very good metabolic stability in human liver microsomes | > 2 | 7.85 | 7.17 | at nanomolar levels | –
14 | CC(C)(Oc1ccc(Cn2ncn(-c3ccc(OC(F)(F)F)cc3)c2=O)cc1OC(F)(F)F)C(=O)O [Compound 103, 2-Methyl-2-(4-((5-oxo-4-(4-(trifluoromethoxy)phenyl)-4,5-dihydro-1H-1,2,4-triazol-1-yl)methyl)-2-(trifluoromethoxy)phenoxy)propionic acid] | – | – | 5.33 | – | – | 6.67 | 6.56 | – | –
15 | CC(C)(Oc1c(Cl)cc(Cn2ncn(-c3ccc(C(F)(F)F)cc3)c2=O)cc1Cl)C(=O)O [Compound 129, 2-(2,6-Dichloro-4-((5-oxo-4-(4-(trifluoromethyl)phenyl)-4,5-dihydro-1H-1,2,4-triazol-1-yl)methyl)phenoxy)-2-methylpropionic acid] | – | – | 5.31 | very good metabolic stability in human liver microsomes | > 2 | 7.64 | – | at nanomolar levels | –
